Test results as given in patent EP2931723B1, “NEW BICYCLIC COMPOUNDS AND THEIR USE AS ANTIBACTERIAL AGENTS AND -LACTAMASE INHIBITORS” (Fedora Pharmaceuticals Inc., priority 2012, dated 2014).

What was measured:
Assay in all cases: MIC, antibacterial and synergistic activity
Type in all cases: cell-based
[1] = tested on: E.coli JMI 4103; details: E.coli JMI 4103 (KPC-2, Tem-1, CMY-Type); for MIC Aztreonam + inhibitor: Aztreonam + inhibitor at 4 µg/mL; for MIC Ceftazidime + inhibitor: Ceftazidime + inhibitor at 4 µg/mL; for MIC Meropenem + inhibitor: Meropenem + inhibitor at 4 µg/mL; for MIC: Escherichia coli, JMI4103, substance alone
[2] = tested on: A. baumanii JMI 2659; details: A. baumanii JMI 2659 (Ges-14 (Cpase)); for MIC Aztreonam + inhibitor: Aztreonam + inhibitor at 4 µg/mL; for MIC Ceftazidime + inhibitor: Ceftazidime + inhibitor at 4 µg/mL; for MIC Meropenem + inhibitor: Meropenem + inhibitor at 4 µg/mL; for MIC: Acinetobacter baumannii, JMI2659, substance alone, read-out: MIC
[3] = tested on: K. pneumo JMI 2693; details: K. pneumo JMI 2693 (NDM-1 (Cpase)); for MIC Aztreonam + inhibitor: Aztreonam + inhibitor at 4 µg/mL; for MIC Ceftazidime + inhibitor: Ceftazidime + inhibitor at 4 µg/mL; for MIC Meropenem + inhibitor: Meropenem + inhibitor at 4 µg/mL; for MIC: substance alone
Procedure: (§1) In the Tables 10 - 12, compounds herein disclosed were tested in combination with various antibiotics against metallo β-lactamase producing bacteria.

[4] = tested on: E. coli JMI 2692; details: E. coli JMI 2692 (NDM-1, TEM-1, CTX-M-15); for MIC Aztreonam + inhibitor: Aztreonam + inhibitor at 4 µg/mL; for MIC Ceftazidime + inhibitor: Ceftazidime + inhibitor at 4 µg/mL; for MIC Meropenem + inhibitor: Meropenem + inhibitor at 4 µg/mL; for MIC: Escherichia coli, JMI2692, substance alone, read-out: MIC
Procedure: as §1

[5] = tested on: K. pneumo JMI 2697; details: K. pneumo JMI 2697 (IMP-4 (Cpase)); for MIC Aztreonam + inhibitor: Aztreonam + inhibitor at 4 µg/mL; for MIC Ceftazidime + inhibitor: Ceftazidime + inhibitor at 4 µg/mL; for MIC Meropenem + inhibitor: Meropenem + inhibitor at 4 µg/mL; for MIC: substance alone
Procedure: as §1

[6] = tested on: P. aerug JMI 2686; details: P. aerug JMI 2686 (KPC-2 (Cpase)); for MIC Aztreonam + inhibitor: Aztreonam + inhibitor at 4 µg/mL; for MIC Ceftazidime + inhibitor: Ceftazidime + inhibitor at 4 µg/mL; for MIC Meropenem + inhibitor: Meropenem + inhibitor at 4 µg/mL
Procedure, shortened: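 This antibacterial synergy assay measured the minimum inhibitory concentration of antibiotics combined with the disclosed inhibitor compounds. The inhibitor was held at 4 µg/mL throughout. The aim was to see whether the added compound strengthened the antibiotic's action against the tested bacteria.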

[7] = tested on: K. pneumo JMI 2673; details: K. pneumo JMI 2673 (CTX-M14 (ESBL)); for MIC Aztreonam + inhibitor: Aztreonam + inhibitor at 4 µg/mL; for MIC Ceftazidime + inhibitor: Ceftazidime + inhibitor at 4 µg/mL; for MIC Meropenem + inhibitor: Meropenem + inhibitor at 4 µg/mL
Procedure, shortened: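 Antibacterial synergy was assessed by testing a β-lactamase inhibitor compound in combination with antibiotics. The inhibitor was held at a fixed concentration of 4 µg/mL, and the minimum inhibitory concentration of the partner antibiotic was determined in its presence.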

[8] = tested on: E. coli JMI 4080; details: for MIC Aztreonam + inhibitor / MIC Ceftazidime + inhibitor / MIC Meropenem + inhibitor: E. coli JMI 4080 (Tem-10); for MIC Aztreonam + inhibitor: Aztreonam + inhibitor at 4 µg/mL; for MIC Ceftazidime + inhibitor: Ceftazidime + inhibitor at 4 µg/mL; for MIC Meropenem + inhibitor: Meropenem + inhibitor at 4 µg/mL; for MIC: Escherichia coli, JMI4080, E. coli JMI 4080 (Tem-10), substance alone

SMILES | MIC Aztreonam + inhibitor [1] | MIC Ceftazidime + inhibitor [1] | MIC Meropenem + inhibitor [1] | MIC [1] | MIC Aztreonam + inhibitor [2] | MIC Ceftazidime + inhibitor [2] | MIC Meropenem + inhibitor [2] | MIC [2] | MIC Aztreonam + inhibitor [3] | MIC Ceftazidime + inhibitor [3] | MIC Meropenem + inhibitor [3] | MIC [3] | MIC Aztreonam + inhibitor [4] | MIC Ceftazidime + inhibitor [4] | MIC Meropenem + inhibitor [4] | MIC [4] | MIC Aztreonam + inhibitor [5] | MIC Ceftazidime + inhibitor [5] | MIC Meropenem + inhibitor [5] | MIC [5] | other results
O=C(NNC(=O)[C@H]1CC[C@H]2CN1C(=O)N2OS(=O)(=O)O)C1CC1 (stereo in doubt) [Ex. 7, (2R,5S)-N'-(cyclopropylcarbonyl)-7-oxo-6-(sulfooxy)-1,6-diazabicyclo[3.2.1]octane-2-carbohydrazide] | ≤0.062 µg/mL | ≤0.25 µg/mL | ≤0.0312 µg/mL | 2 µg/mL | >4 µg/mL | >16 µg/mL | >2 µg/mL | > 16 µg/mL | 1 µg/mL | 2 µg/mL | 0.25 µg/mL | > 16 µg/mL | ≤0.062 µg/mL | ≤0.25 µg/mL | 0.5 µg/mL | 8 µg/mL | ≤0.062 µg/mL | 16 µg/mL | 2 µg/mL | > 16 µg/mL | MIC Aztreonam + inhibitor [6]: >4 µg/mL; MIC Ceftazidime + inhibitor [6]: >16 µg/mL; MIC Meropenem + inhibitor [6]: >2 µg/mL; MIC Aztreonam + inhibitor [7]: ≤0.062 µg/mL; MIC Ceftazidime + inhibitor [7]: ≤0.25 µg/mL; MIC Meropenem + inhibitor [7]: ≤0.0312 µg/mL; MIC Aztreonam + inhibitor [8]: ≤0.062 µg/mL; MIC Ceftazidime + inhibitor [8]: ≤0.25 µg/mL; MIC Meropenem + inhibitor [8]: ≤0.0312 µg/mL; MIC [8]: 4 µg/mL
O=C(NNC(=O)[C@H]1CC[C@H]2CN1C(=O)N2OS(=O)(=O)O)C1CNC1 (stereo in doubt) [Ex. 9, (2R,5S)-N'-(azetidin-3-ylcarbonyl)-7-oxo-6-(sulfooxy)-1,6-diazabicyclo[3.2.1]octane-2-carbohydrazide] | ≤0.06 µg/mL | 0.5 µg/mL | 0.06 µg/mL | 16 µg/mL | >4 µg/mL | 16 µg/mL | 2 µg/mL | > 16 µg/mL | 0.25 µg/mL | ≤0.25 µg/mL | 0.125 µg/mL | > 16 µg/mL | 1 µg/mL | >16 µg/mL | 0.125 µg/mL | 8 µg/mL | ≤0.06 µg/mL | 8 µg/mL | 2 µg/mL | 16 µg/mL | MIC Aztreonam + inhibitor [6]: >4 µg/mL; MIC Ceftazidime + inhibitor [6]: >16 µg/mL; MIC Meropenem + inhibitor [6]: >2 µg/mL; MIC Aztreonam + inhibitor [7]: ≤0.06 µg/mL; MIC Ceftazidime + inhibitor [7]: ≤0.25 µg/mL; MIC Meropenem + inhibitor [7]: ≤0.03 µg/mL; MIC Aztreonam + inhibitor [8]: ≤0.06 µg/mL; MIC Ceftazidime + inhibitor [8]: 0.25 µg/mL; MIC Meropenem + inhibitor [8]: ≤0.03 µg/mL; MIC [8]: 16 µg/mL
O=C(NO[C@H]1CCNC1)[C@@H]1CC[C@@H]2CN1C(=O)N2OS(=O)(=O)O [Ex. 1, (2S,5R)-7-Oxo-N-[(3S)-pyrrolidin-3-yloxy]-6-(sulfooxy)-1,6-diazabicyclo[3.2.1]octane-2-carboxamide] | >4 µg/mL | 8 µg/mL | ≤.031 µg/mL | 16 µg/mL | >4 µg/mL | >16 µg/mL | 2 µg/mL | > 16 µg/mL | 0.125 µg/mL | ≤0.25 µg/mL | 0.062 µg/mL | > 16 µg/mL | 0.25 µg/mL | ≤0.25 µg/mL | ≤.031 µg/mL | 4 µg/mL | 0.25 µg/mL | 16 µg/mL | >2 µg/mL | 16 µg/mL | MIC Aztreonam + inhibitor [6]: >4 µg/mL; MIC Ceftazidime + inhibitor [6]: 16 µg/mL; MIC Meropenem + inhibitor [6]: >2 µg/mL; MIC Aztreonam + inhibitor [7]: ≤.062 µg/mL; MIC Ceftazidime + inhibitor [7]: ≤0.25 µg/mL; MIC Meropenem + inhibitor [7]: ≤.031 µg/mL; MIC Aztreonam + inhibitor [8]: 1 µg/mL; MIC Ceftazidime + inhibitor [8]: 1 µg/mL; MIC Meropenem + inhibitor [8]: ≤.031 µg/mL; MIC [8]: 8 µg/mL
O=C(NO[C@H]1CCCNC1)[C@@H]1CC[C@@H]2CN1C(=O)N2OS(=O)(=O)O [Ex. 2, (2S,5R)-7-Oxo-N-[(3S)-piperidin-3-yloxy] -6-(sulfooxy)-1,6-diazabicyclo[3.2.1]octane-2-carboxamide] | >4 µg/mL | 8 µg/mL | ≤.031 µg/mL | 8 µg/mL | >4 µg/mL | >16 µg/mL | >2 µg/mL | > 16 µg/mL | ≤.062 µg/mL | ≤0.25 µg/mL | ≤.031 µg/mL | 4 µg/mL | ≤.062 µg/mL | ≤0.25 µg/mL | ≤.031 µg/mL | ≤ 0.5 µg/mL | ≤.062 µg/mL | 0.5 µg/mL | ≤.031 µg/mL | 4 µg/mL | MIC Aztreonam + inhibitor [6]: >4 µg/mL; MIC Ceftazidime + inhibitor [6]: 16 µg/mL; MIC Meropenem + inhibitor [6]: >2 µg/mL; MIC Aztreonam + inhibitor [7]: ≤.062 µg/mL; MIC Ceftazidime + inhibitor [7]: ≤0.25 µg/mL; MIC Meropenem + inhibitor [7]: ≤.031 µg/mL; MIC Aztreonam + inhibitor [8]: ≤.062 µg/mL; MIC Ceftazidime + inhibitor [8]: ≤0.25 µg/mL; MIC Meropenem + inhibitor [8]: ≤.031 µg/mL; MIC [8]: 4 µg/mL
NCCONC(=O)[C@@H]1CC[C@@H]2CN1C(=O)N2OS(=O)(=O)O [Ex. 3, (2S,5R)-N-(2-Aminoethoxy)-7-oxo-6-(sulfooxy)-1,6-diazabicyclo[3.2.1]octane-2-carboxamide] | ≤0.062 µg/mL | ≤0.25 µg/mL | ≤0.0312 µg/mL | 4 µg/mL | >4 µg/mL | >16 µg/mL | 2 µg/mL | > 16 µg/mL | 0.25 µg/mL | ≤0.25 µg/mL | ≤0.0312 µg/mL | 8 µg/mL | ≤0.062 µg/mL | ≤0.25 µg/mL | ≤0.0312 µg/mL | 2 µg/mL | 0.25 µg/mL | 0.5 µg/mL | 0.25 µg/mL | 8 µg/mL | MIC Aztreonam + inhibitor [6]: >4 µg/mL; MIC Ceftazidime + inhibitor [6]: 16 µg/mL; MIC Meropenem + inhibitor [6]: >2 µg/mL; MIC Aztreonam + inhibitor [7]: 0.125 µg/mL; MIC Ceftazidime + inhibitor [7]: ≤0.25 µg/mL; MIC Meropenem + inhibitor [7]: ≤0.0312 µg/mL; MIC Aztreonam + inhibitor [8]: ≤0.062 µg/mL; MIC Ceftazidime + inhibitor [8]: ≤0.25 µg/mL; MIC Meropenem + inhibitor [8]: ≤0.0312 µg/mL; MIC [8]: 2 µg/mL
